The values that follow are results of earlier work, collected in patent US20030219387A1, “Local delivery of agents for disruption and inhibition of bacterial biofilm for treatment of periodontal disease” (priority 2000, published 2003).

Turning to `CC(=N)N1CC[C@H](Oc2ccc([C@H](Cc3ccc4ccc(C(=N)N)cc4c3)C(=O)O)cc2)C1` [DX-9065a], in the data set with gingipain, the inhibition of gingipain entry is “can inhibit gingipain”. The “reduction of P. gingivalis growth” value in the data set with P. gingivalis is on record as “selectively reduces P. gingivalis growth”.
